Test results as given in patent publication US20220152015A1, “NEDOCROMIL SODIUM TO PREVENT, LIMIT ONSET, AND /OR TREAT PANCREATIC CANCER” (priority 2020, published 2022).

Tests used:
human GPR35 = molecular target: T1, human GPR35 (Homo sapiens, UniProt Q9HC97); assay: PathHunter human GPR35a-β-arrestin-2 interaction assay in CHO-K1 cells; format: cell-based
T1 construct: expressed in transfected cells; host or cells: CHO-K1

[1] = test system: ion channels present in the intestinal cell line HT29; assay: Whole-cell patch-clamp recordings of ion channels; format: cell-based; conditions: HT29 cells
Excerpt: Summary—Whole-cell patch-clamp recordings were used to test the effects of The Compound on ion channels.

K-ras^G12Dp53^−/− tumors = assay: Surgically implanted PDAC tumors in tumor-bearing C57BL/6 mice; format: in vivo
Protocol: (§1) To determine whether targeting mast cell function has a therapeutic effect in PDAC, we injected tumor-bearing C57BL/6 mice Nedocromil sodium, a mast cell stabilizer. […] Tumor measurement was performed at the end time point (day 50) after treatment. […] Similarly, mast cell degranulation in the tumor microenvironment was inhibited in the nedocromil sodium-treated group compared with in the saline-treated control group.

Panc-02 tumor cells = assay: Panc-02 tumor growth in mice; format: in vivo; conditions: treated mice vs. saline control at day 21 after treatment, P<0.001
Excerpt: as §1, with “Tumor measurement was performed at the end time point (day 50) after treatment.” left out

cancerous tumor = assay: Dog tumor case, topical application; format: in vivo
Protocol: Summary—A female dog was given the diagnosis of a cancerous tumor (without confirmatory histology due to lack of ability to aspirate the tumor due to the hardness of the mass) in June of 2020. At the time of diagnosis the tumor located on […] right shoulder was measured at 2 inches by 2 inches with a depth of 0.5 inches. Other than supportive care (ketogenic diet to delay tumor progression, and gabapentin for neuropathic pain) no treatment was provided by the owners, as the cost and lack of clear benefit to conventional therapy (biopsy, chemotherapy, and eventual resection) was not deemed to be appropriate for this dog. […] On December 23rd, 2020 the first application of Nedocromil sodium compound was administered to the dog via the topical route. The dog's tumor area was shaved to improve the absorption of the compound into the skin. On Jul. 16, 2021 (tumor size of 1.5×1×0.5 inches), a second application of Nedocromil Sodium was applied using the same dosing strategy in attempt to eradicate the tumor entirely.

[2] = test system: stage 4 transit metastatic melanoma; assay: Transit metastasis melanoma case study, topical application
Protocol: Person with stage 4 transit metastatic melanoma with 30 melanomas on the body. Using chemotherapy infusions every 3 weeks since 2019. For 2 weeks used topical Nedocromil sodium with one dose per tumor (30) per week. […] In modern medicine the goal is to shrink a tumor, but the tumor never resolves. […] The patient was treated with Nedocromil Sodium on all 30 tumors in one sitting.

T1 sequence (Q9HC97 whole entry): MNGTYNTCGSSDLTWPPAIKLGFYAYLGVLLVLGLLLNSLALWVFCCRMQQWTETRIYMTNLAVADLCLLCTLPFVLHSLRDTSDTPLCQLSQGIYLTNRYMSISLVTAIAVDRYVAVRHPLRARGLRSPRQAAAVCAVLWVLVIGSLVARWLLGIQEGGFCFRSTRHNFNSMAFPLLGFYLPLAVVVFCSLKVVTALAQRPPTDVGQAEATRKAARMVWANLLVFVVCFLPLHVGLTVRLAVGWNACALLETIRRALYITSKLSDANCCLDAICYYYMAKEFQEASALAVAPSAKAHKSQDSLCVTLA

Compound: CCCc1c2oc(C(=O)[O-])cc(=O)c2cc2c(=O)cc(C(=O)[O-])n(CC)c12.[Na+].[Na+] [Nedocromil Sodium, 4H-Pyrano[3,2-g]quinoline-2,8-dicarboxylic acid, 9-ethyl-6,9-dihydro-4,6-dioxo-10-propyl-, disodium salt]
- EC50 (human GPR35; CHO-K1 cell line stably expressing human GPR35 and β-arrestin): 2980 ± 1270 nM
- agonism of GPR 35 (human GPR35; PathHunter β-arrestin-2 interaction assay): potent full agonist
- dose dependence of ion channel block [1]: dose-dependent manner
- mast cell degranulation in the tumor microenvironment (K-ras^G12Dp53^−/− tumors; compared with saline-treated control group): inhibited
- mean tumor size (K-ras^G12Dp53^−/− tumors; end time point (day 50) after treatment, saline group 31.3): 5.2 mm^3
- tumor growth (K-ras^G12Dp53^−/− tumors; treated mice vs. saline control at day 42 after treatment, P<0.001): significantly suppressed
- tumor growth (Panc-02 tumor cells): significantly suppressed
- tumor change (cancerous tumor; 8 week mark after second topical application): no tumor was able to be felt
- tumor change (cancerous tumor; roughly 6 weeks after second topical application): noticeably smaller
- number of tumors dissolved ([2]; after 2nd topical treatment): 17 OF THE 30 TUMORS
- tumor change ([2]; after one topical treatment, 30 tumors): the tumors have flattened
- side effects ([2]; all 30 tumors treated in one sitting): no side effects
